For 23 compounds, IC50 and inhibition results are on record in patent publication US11453663B2, “Substituted propanamides as inhibitors of nucleases” (MASARYKOVA UNIVERZITA, priority 2018, dated 2022).

For assay [1], the target named is MRE11 (Homo sapiens (Human), UniProt P49959). The experiment in a line: HTS nuclease assay (fluorescence-quenched 5′ overhang DNA substrate cleavage). It is filed as biochemical. As to conditions: 18 nM MRE11, 40 nM DNA substrate, analysis at t=4 h. How it is done: DNA Substrate Preparation
Sequence of MRE11 (P49959 whole entry): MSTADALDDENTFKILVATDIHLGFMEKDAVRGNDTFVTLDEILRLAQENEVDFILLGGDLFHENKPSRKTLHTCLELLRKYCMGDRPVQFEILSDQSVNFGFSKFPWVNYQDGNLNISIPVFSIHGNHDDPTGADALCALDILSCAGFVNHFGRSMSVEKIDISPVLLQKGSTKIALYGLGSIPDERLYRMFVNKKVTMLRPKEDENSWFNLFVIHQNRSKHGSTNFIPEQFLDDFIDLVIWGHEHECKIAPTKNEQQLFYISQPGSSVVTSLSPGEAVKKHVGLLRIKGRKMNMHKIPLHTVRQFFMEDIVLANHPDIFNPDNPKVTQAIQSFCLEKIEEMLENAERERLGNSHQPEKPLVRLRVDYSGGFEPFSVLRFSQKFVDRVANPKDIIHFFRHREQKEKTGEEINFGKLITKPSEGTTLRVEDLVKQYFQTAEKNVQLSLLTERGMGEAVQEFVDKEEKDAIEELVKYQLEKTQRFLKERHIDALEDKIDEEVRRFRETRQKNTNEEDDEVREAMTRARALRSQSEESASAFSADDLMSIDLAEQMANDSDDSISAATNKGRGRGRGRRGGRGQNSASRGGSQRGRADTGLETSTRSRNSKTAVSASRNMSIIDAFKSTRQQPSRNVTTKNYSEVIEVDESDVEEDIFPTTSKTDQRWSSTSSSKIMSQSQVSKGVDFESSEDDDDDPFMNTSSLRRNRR
The DNA substrate is prepared by mixing the oligonucleotides listed below in a 1:1 ratio to reach a final concentration of 6 μM in a buffer containing 50 mM Tris pH 7.5, 100 mM NaCl and 8 mM MgCl2.
The mixture is heat for 3 min at 65° C. and let to cool down slowly to RT. Then it is stored at −20° C.
This substrate is a 5′ overhang, which is a preferred substrate of MRE11. […] The fluorescence increases upon substrate cleavage by MRE11, when separation of the two labels occur.
The conditions of the assay are as follows:
Total reaction volume: 5 μL
DNA substrate concentration in the reaction: 40 nM
Inhibitor concentration range tested: 7 nM-50 μM
Each plate contains a series of high and low signal control wells, where no compound is added:
High signal: MRE11+DNA substrate
Low signal: DNA substrate only
These are used during data evaluation.
Two Extra Assay Controls:
1) To check whether unwinding of DNA by the compounds alone occurs.
The DNA substrate [CY5+BBQ(650)] is mixed with the compounds with no protein present.
The CY5 single stranded oligo is mixed with the compounds with no protein present.
The layout of the plates is created by the in-house software (CZ-Openscreen Prague) and this information is transferred to the robotic HTS station.
The reaction is started by the addition of DNA and the reaction time is counted from that moment, including a 15 min delay. Ten timepoints are measured:
The assay data analysis was performed at t=4 h. This corresponds to the time when the reaction is close to its maximum.
The data analysis was performed using the in-house software (CZ-Openscreen Prague) to obtain IC50 for each compound.

Assay [2] deals with Phosphorylated RPA32 S4/S8 in U2OS cells. The experiment in a line: RPA assay (camptothecin-induced RPA phosphorylation). The following applies: Homo sapiens, 1 h pre-treatment, 1 uM camptothecin 1 h; for inhibition at 10 µM: 10 μM inhibitor. Format: cell-based. The protocol:
U2OS cells were pre-treated for 1 h with MRE11 inhibitors followed by addition of 1 uM camptothecin for 1 h. Cells were lysed in SDS-PAGE loading buffer, sonicated and boiled at 70° C. for 10 min. Equal amounts of protein (50-100 μg) were analysed by Tris-glycine gel electrophoresis Expression levels were quantified using Multi Gauge software and expressed relative to loading control. Phosphorylated RPA32 S4/S8 (A300-245A, Bethyl Laboratories) 1:1000 dilution was used.

The test system of assay [3] is DR-GFP U2OS cells. Description: HR assay (GFP fluorescence by flow cytometry after I-SceI transfection). As to conditions: Homo sapiens, 25 μM inhibitor, 72 hours after transfection. It is filed as cell-based. The protocol:
DR-GFP U2OS cells (Methods in Molecular Biology 2012, 920, 379.) were transfected with 2.5 μg of I-SceI-expressing pCAGGS vector and treated with the inhibitors at 25 μM concentration. 72 hours after the transfection, the cells were trypsinized and resuspended in 3% BSA in PBS. GFP fluorescence detection was carried out using a BD FACSVerse flow cytometer and data analyzed with FlowJo software.
Background: A flow cytometer gives signals particle by particle.

Broadly, the IC50 is the point on the concentration scale where inhibition reaches its midpoint. Read a low IC50 as greater potency in that assay. The term inhibition denotes the percentage by which the read-out fell short of the control. In turn, `N#CC(Cc1ccc(O)c(O)c1)C(=O)Nc1nc(-c2ccc(Br)cc2)cs1` (centres unmarked) [Preparative Example 129, N-(4-(4-bromophenyl)thiazol-2-yl)-2-cyano-3-(3,4-dihydroxyphenyl)propanamide] had an IC50 in assay [1] of 2 to 10 µM. Also, the inhibition at 10 µM in assay [2] amounted to 60%. In assay [3], the inhibition at 25 µM is above 75%.
As to `CC(C)(C)c1cc(CC(C#N)C(=O)Nc2nc(-c3ccccc3)cs2)cc(C(C)(C)C)c1O` (centres unmarked) [Preparative Example 139, 2-cyano-3-(3,5-di-tert-butyl-4-hydroxyphenyl)-N-(4-phenylthiazol-2-yl)propanamide], the inhibition at 10 µM in assay [2] came to 70%. This compound also had an inhibition at 25 µM in assay [3] above 75%.
In turn, `N#Cc1cc(CC(C#N)C(=O)Nc2nc(-c3ccccc3)cs2)ccc1O` (centres unmarked) [Preparative Example 151, 2-cyano-3-(3-cyano-4-hydroxyphenyl)-N-(4-phenylthiazol-2-yl)propanamide] showed an IC50 in assay [1] of 10 to 90 µM. For the same compound, the inhibition at 25 µM in assay [3] was below 50%.
Taken in the same sequence, the figures for `N#CC(Cc1cc(Cl)c(O)c(Cl)c1)C(=O)Nc1nc(-c2ccc(OC(F)(F)F)cc2)cs1` (centres unmarked) [Preparative Example 137, 2-cyano-3-(3,5-dichloro-4-hydroxyphenyl)-N-(4-(4-(trifluoromethoxy)phenyl)thiazol-2-yl)propanamide] were 2 to 10 µM and below 50%.
Taken in the same sequence, the figures for `N#CC(Cc1ccc(O)c(O)c1)C(=O)Nc1nc(-c2cccc(Cl)c2)cs1` (centres unmarked) [Preparative Example 162, N-(4-(3-chlorophenyl)thiazol-2-yl)-2-cyano-3-(3,4-dihydroxyphenyl)propanamide] were 2 to 10 µM and 50 to 75%.
In turn, `N#CC(Cc1ccc(O)c(O)c1)C(=O)Nc1nc(-c2ccc(C3CCCCC3)cc2)cs1` (centres unmarked) [Preparative Example 154, 2-cyano-N-(4-(4-cyclohexylphenyl)thiazol-2-yl)-3-(3,4-dihydroxyphenyl)propanamide] gave an IC50 in assay [1] of 2 to 10 µM. In addition, the inhibition at 25 µM in assay [3] is above 75%.
Taken in the same sequence, the figures for `N#CC(Cc1ccc2nc[nH]c2c1)C(=O)Nc1nc(-c2ccccc2)cs1` (centres unmarked) [Preparative Example 142, 3-(1H-benzo[d]imidazol-6-yl)-2-cyano-N-(4-phenylthiazol-2-yl)propanamide] were 10 to 90 µM and below 50%.
Taken in the same sequence, the figures for `N#CC(Cc1ccc(O)c(O)c1)C(=O)Nc1nc(-c2cc(Cl)sc2Cl)cs1` (centres unmarked) [Preparative Example 175, 2-cyano-N-(4-(2,5-dichlorothiophen-3-yl)thiazol-2-yl)-3-(3,4-dihydroxyphenyl)propanamide] were 2 to 10 µM and 50 to 75%.
The compound `N#CC(Cc1ccc(O)c(O)c1)C(=O)Nc1nc(-c2ccc(C(F)(F)F)cc2)cs1` (centres unmarked) [Preparative Example 132, 2-cyano-3-(3,4-dihydroxyphenyl)-N-(4-(4-(trifluoromethyl)phenyl)thiazol-2-yl)propanamide] had an IC50 in assay [1] of 2 to 10 µM. Moreover, the inhibition at 25 µM in assay [3] was above 75%.
For `COc1ccnc(-c2csc(NC(=O)C(C#N)Cc3ccc(O)c(O)c3)n2)c1` (centres unmarked) [Preparative Example 167, 2-cyano-3-(3,4-dihydroxyphenyl)-N-(4-(4-methoxypyridin-2-yl)thiazol-2-yl)propanamide], in that order: below 2 µM and above 75%.
For `N#CC(Cc1ccc(O)c(O)c1Br)C(=O)Nc1nc(-c2ccccc2)cs1` (centres unmarked) [Preparative Example 148, 3-(2-bromo-3,4-dihydroxyphenyl)-2-cyano-N-(4-phenylthiazol-2-yl)propanamide], the IC50 in assay [1] is below 2 µM. Besides, the results for the inhibition at 25 µM in assay [2] (25 μM inhibitor) and in assay [3] were 90% and above 75%, respectively.
On to `COc1cccc(-c2csc(NC(=O)C(C#N)Cc3ccc(O)c(O)c3)n2)n1` (centres unmarked) [Preparative Example 170, 2-cyano-3-(3,4-dihydroxyphenyl)-N-(4-(6-methoxypyridin-2-yl)thiazol-2-yl)propanamide], for which the IC50 in assay [1] is 2 to 10 µM. This compound gave an inhibition at 25 µM in assay [3] of 50 to 75%.
Taken in the same sequence, the figures for `N#CC(Cc1cc(Cl)c(O)c(Cl)c1)C(=O)Nc1nc(-c2ccccc2)c(-c2ccccc2)s1` (centres unmarked) [Preparative Example 134, 2-cyano-3-(3,5-dichloro-4-hydroxyphenyl)-N-(4,5-diphenylthiazol-2-yl)propanamide] were 2 to 10 µM and below 50%.
`CC(C)(C)c1ccc(-c2csc(NC(=O)C(C#N)Cc3ccc(O)c(O)c3)n2)cc1` (centres unmarked) [Preparative Example 140, N-(4-(4-(tert-butyl)phenyl)thiazol-2-yl)-2-cyano-3-(3,4-dihydroxyphenyl)propanamide] had an IC50 in assay [1] of 2 to 10 µM. For the same compound, the inhibition at 10 µM in assay [2] worked out at 40%. In addition, in assay [3], the inhibition at 25 µM was above 75%.
`Cc1ccccc1-c1csc(NC(=O)C(C#N)Cc2ccc(O)c(O)c2)n1` (centres unmarked) [Preparative Example 161, 2-cyano-3-(3,4-dihydroxyphenyl)-N-(4-(o-tolyl)thiazol-2-yl)propanamide] returned an IC50 in assay [1] of 2 to 10 µM. This compound also displayed an inhibition at 25 µM in assay [3] of 50 to 75%.
For `N#CC(Cc1ccc(O)c(O)c1)C(=O)Nc1nc(-c2ncccc2F)cs1` (centres unmarked) [Preparative Example 172, 2-cyano-3-(3,4-dihydroxyphenyl)-N-(4-(3-fluoropyridin-2-yl)thiazol-2-yl)propanamide], in that order: below 2 µM and above 75%.
For `Cc1cc(CC(C#N)C(=O)Nc2nc(-c3ccccc3)cs2)cc(Cl)c1O` (centres unmarked) [Preparative Example 155, 3-(3-chloro-4-hydroxy-5-methylphenyl)-2-cyano-N-(4-phenylthiazol-2-yl)propanamide], in that order: 10 to 90 µM and below 50%.
Taken in the same sequence, the figures for `Cc1cc(-c2csc(NC(=O)C(C#N)Cc3ccc(O)c(O)c3)n2)cs1` (centres unmarked) [Preparative Example 152, 2-cyano-3-(3,4-dihydroxyphenyl)-N-(4-(5-methylthiophen-3-yl)thiazol-2-yl)propanamide] were 2 to 10 µM and below 50%.
In assay [1], `N#CC(Cc1ccc(O)c(O)c1)C(=O)Nc1nc(-c2ccc(Cl)cc2Cl)cs1` (centres unmarked) [Preparative Example 171, 2-cyano-N-(4-(2,4-dichlorophenyl)thiazol-2-yl)-3-(3,4-dihydroxyphenyl)propanamide] yielded an IC50 below 2 µM. Moreover, in assay [3], the inhibition at 25 µM is above 75%.
In the case of `N#CC(Cc1ccc(O)c(O)c1)C(=O)Nc1nc(-c2ccc(OC(F)(F)F)cc2)cs1` (centres unmarked) [Preparative Example 136, 2-cyano-3-(3,4-dihydroxyphenyl)-N-(4-(4-(trifluoromethoxy)phenyl)thiazol-2-yl)propanamide], the IC50 in assay [1] lay in the range of 2 to 10 µM. Moreover, the inhibition at 10 µM in assay [2] stood at 40%. Besides, the inhibition at 25 µM in assay [3] was above 75%.
In turn, `N#CC(Cc1ccc(O)c(O)c1)C(=O)Nc1nc(-c2cc(C(F)(F)F)ccn2)cs1` (centres unmarked) [Preparative Example 174, 2-cyano-3-(3,4-dihydroxyphenyl)-N-(4-(4-(trifluoromethyl)pyridin-2-yl)thiazol-2-yl)propanamide] had an IC50 in assay [1] below 2 µM. Moreover, in assay [3], the inhibition at 25 µM was above 75%.
For `Cc1cc(CC(C#N)C(=O)Nc2nc(-c3ccc(C(C)(C)C)cc3)cs2)cc(C)c1O` (centres unmarked) [Preparative Example 149, N-(4-(4-(tert-butyl)phenyl)thiazol-2-yl)-2-cyano-3-(4-hydroxy-3,5-dimethylphenyl)propanamide], in that order: 10 to 90 µM and above 75%.
Take `CC(C)(C)c1cc(CC(C#N)C(=O)Nc2nc(-c3ccccn3)cs2)cc(C(C)(C)C)c1O` (centres unmarked) [Preparative Example 169, 2-cyano-3-(3,5-di-tert-butyl-4-hydroxyphenyl)-N-(4-(pyridin-2-yl)thiazol-2-yl)propanamide]: the IC50 in assay [1] lay within 10 to 90 µM. Further, in assay [3], the inhibition at 25 µM is above 75%.
